Data from US11198710B2, “Transgenic plant having herbicide resistance” (priority 2016, dated 2021).

Key:
OsGSTF5 = assay: Pyroxasulfone metabolizing activity based on fatty acid content in cultured rice cells; format: cell-based; details: cultured rice cells with OsGSTF5 gene; 10^−6 M treatment group
Procedure: (§1) The transgenic cultured rice cells thus prepared were used for liquid culture in the presence of pyroxasulfone. Pyroxasulfone was added to the liquid medium as an acetone solution. The final acetone concentration was 0.1%. When liquid culture was carried out, cultured rice cells transformed with KLB-279 (a plasmid comprising Act1p (rice actin 1 promoter)::sGFP::NOSt incorporated into the MCS of PalSelect R-4) were designated as the control samples. Liquid culture was carried out as described below. […]
(§2) Fatty acid was extracted using undecenoic acid (C11:1) as an internal standard. As analytical standards, Supelco FAME mix containing C14:0, C16:0, C16:1, C18:0, C18:1, C18:2, C18:3, C20:0, C22:0, C22:1, and C24:0 and other fatty acid methyl esters (C11:1, C15:0, C20:1, and C26:0) were used, and calibration curves thereof were prepared, followed by quantification. […] Quantitative and qualitative analyses were carried out as methyl esters, although fatty acid methyl esters were converted into fatty acids at the time of quantitative analysis. […]

OsGSTU5 = assay: as above; format: cell-based; details: cultured rice cells with OsGSTU5 gene; 10^−6 M treatment group
Procedure: as §1, §2

[1] = test system: rice plants comprising the TaQ8GTC1-R gene introduced therein; assay: Sensitivity of rice plants comprising the TaQ8GTC1-R gene to pyroxasulfone, gellan gum medium; format: in vivo; details: strains KLB-872#3-11 and KLB-872#2-4; 10^−8 to 10^−5M
Procedure: Pyroxasulfone resistance of 2 rice plants strains (KLB-872#3-11 and KLB-872#2-4) was examined via the germination growth inhibitory test using a gellan gum medium. At the outset, Hoagland's mix and 3 g of gellan gum were suspended in 1 liter of distilled water and thoroughly dissolved therein by heating in a microwave. A fraction of the resultant (15 ml) was poured into a tubular bottle before it was cooled (30 ml was injected into the plate). Pyroxasulfone (acetone solution) was simultaneously added at the time of filling of gellan gum medium into the tubular bottle or plate, followed by thorough mixing. Rice hulls were soaked in a 50-fold diluted sodium hypochlorite solution (antiformin) (Wako) for approximately 20 minutes and then thoroughly washed with water. Sterilized seeds were soaked in distilled water and allowed to stand at 27° C. for germination (for approximately 2 days). […] Thereafter, rice seeds that were determined to have BS resistance with the use of root elongation as the indicator were transferred to gellan gum media containing pyroxasulfone (tubal bottles) at the final concentrations of 10^−8, 10^−7, 10^−6, and 10^−5M, respectively. […] These samples were grown at 27° C. under fluorescent light illumination (14 hours of a light period and 10 hours of a dark period) for 4 to 5 days, and the plant heights were then measured. […]

SMILES: Cn1nc(C(F)(F)F)c(CS(=O)(=O)C2=NOC(C)(C)C2)c1OC(F)F [Pyroxasulfone, 3-[5-(difluoromethoxy)-1-methyl-3-(trifluoromethyl)pyrazol-4-ylmethylsulfonyl]-4,5-dihydro-5,5-dimethyl-1,2-oxazole]
- pyroxasulfone metabolizing activity (C15:0 and VLCFA contents) (OsGSTF5): no pyroxasulfone metabolizing activity
- pyroxasulfone metabolizing activity (C15:0 and VLCFA contents) (OsGSTU5): no pyroxasulfone metabolizing activity
- sensitivity to pyroxasulfone [1]: sensitivity equivalent to that of wild-type plants
